From ChEMBL document CHEMBL1201862, “PubChem BioAssay data set” (2004)
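Grown in 96-well plates, cells were treated for 48 hours with each compound at five concentrations. Insufficient inhibition: endpoint recorded as highest concentration tested. GI50: concentration for 50% inhibition of growth.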 Calls of active or inactive are those of the source. No stated cut-off is given here; in the data, active = GI50 up to about 1.1 µM and inactive = higher.

Tests used:
Assay in all cases: NCI-60 cell line screen, 48 h
[1] = test system: 786-0
[2] = test system: A498
[3] = test system: A549
[4] = test system: CCRF-CEM
[5] = test system: HCT-116
[6] = test system: HOP-62
[7] = test system: LOX IMVI
[8] = test system: Malme-3M
[9] = test system: NCI-H226
[10] = test system: NCI-H23
[11] = test system: OVCAR-3
[12] = test system: RPMI-8226
[13] = test system: SF-268
[14] = test system: SF-295
[15] = test system: SK-MEL-2
[16] = test system: SN12C
[17] = test system: SR
[18] = test system: UACC-62
[19] = test system: DU-145

Structure (SMILES)	GI50 [1]	GI50 [2]	GI50 [3]	GI50 [4]	GI50 [5]	GI50 [6]	GI50 [7]	GI50 [8]	GI50 [9]	GI50 [10]	GI50 [11]	GI50 [12]	GI50 [13]	GI50 [14]	GI50 [15]	GI50 [16]	GI50 [17]	GI50 [18]	GI50 [19]
C/C(CC(=O)Nc1ccc(Cl)c(Cl)c1)=N/NC(=O)C[n+]1ccccc1	43.1 µM (inactive)	> 100 µM (inactive)	> 100 µM (inactive)	85.3 µM (inactive)	> 100 µM (inactive)	> 100 µM (inactive)	18.8 µM (inactive)	> 100 µM (inactive)	> 100 µM (inactive)	> 100 µM (inactive)	> 100 µM (inactive)	32.3 µM (inactive)	> 100 µM (inactive)	> 100 µM (inactive)	> 100 µM (inactive)	> 100 µM (inactive)	23.7 µM (inactive)	> 100 µM (inactive)	
CC1=CC(=O)/C(=C/NC(=S)Nc2ccc(S(N)(=O)=O)cc2)C(=O)O1	> 100 µM (inactive)	> 100 µM (inactive)	> 100 µM (inactive)		> 100 µM (inactive)	> 100 µM (inactive)	> 100 µM (inactive)		> 100 µM (inactive)	> 100 µM (inactive)	> 100 µM (inactive)		> 100 µM (inactive)	> 100 µM (inactive)	> 100 µM (inactive)	> 100 µM (inactive)		> 100 µM (inactive)	> 100 µM (inactive)
O=C(Nc1nc2ccc([N+](=O)[O-])cc2s1)C(=O)C(C1OC(=O)c2ccccc21)[N+](=O)[O-] (centres undefined)	> 100 µM (inactive)	12.6 µM (inactive)	> 100 µM (inactive)	63.2 µM (inactive)	97.5 µM (inactive)	31.9 µM (inactive)	> 100 µM (inactive)	> 100 µM (inactive)	55.8 µM (inactive)	55.2 µM (inactive)	71 µM (inactive)	56.2 µM (inactive)	76.9 µM (inactive)	91.2 µM (inactive)	41.5 µM (inactive)	75 µM (inactive)	54.1 µM (inactive)	65.8 µM (inactive)	
O=C(CCCCCCCCC(=O)NN1C(=O)/C(=C\c2ccc(O)c(O)c2)SC1c1c(O)ccc2ccccc12)NN1C(=O)C(=Cc2ccc(O)c(O)c2)SC1c1c(O)ccc2ccccc12 (centres undefined)	3.46 µM (inactive)	22.8 µM (inactive)	6.95 µM (inactive)	0.828 µM (active)	4.05 µM (inactive)	2.45 µM (inactive)	1.79 µM (inactive)	5.24 µM (inactive)	6.08 µM (inactive)	9.35 µM (inactive)	2.25 µM (inactive)	3.85 µM (inactive)	6.4 µM (inactive)	3.86 µM (inactive)	5.97 µM (inactive)	27.2 µM (inactive)	4.42 µM (inactive)	4.74 µM (inactive)	8.28 µM (inactive)
C[N+](C)(C)CC(=O)N/N=C(/CC(=O)CC(C1=C(O)c2ccccc2OC1)c1ccccc1)C(=O)Nc1cccc(Cl)c1 (centres undefined)	> 100 µM (inactive)	> 100 µM (inactive)	> 100 µM (inactive)	> 100 µM (inactive)	> 100 µM (inactive)	> 100 µM (inactive)	> 100 µM (inactive)		> 100 µM (inactive)	> 100 µM (inactive)	> 100 µM (inactive)	> 100 µM (inactive)	> 100 µM (inactive)	> 100 µM (inactive)	> 100 µM (inactive)	> 100 µM (inactive)	> 100 µM (inactive)	> 100 µM (inactive)	> 100 µM (inactive)
N#CC1C(=O)Nc2sc(C(=O)c3ccc(Br)cc3)c(N)c2C12CCCCC2 (centres undefined)	31.4 µM (inactive)	20.1 µM (inactive)	18.1 µM (inactive)	29 µM (inactive)	15.8 µM (inactive)	38.5 µM (inactive)	24.1 µM (inactive)	26.1 µM (inactive)	7.8 µM (inactive)	25 µM (inactive)	9.66 µM (inactive)	19.9 µM (inactive)	22.7 µM (inactive)	30.5 µM (inactive)	14.2 µM (inactive)	27.9 µM (inactive)	7.96 µM (inactive)	18.3 µM (inactive)	23.8 µM (inactive)
NN/C(=N\S(=O)(=O)c1cc(S(=O)(=O)c2ccccc2)cs1)Nc1ccc(Cl)cc1	35.2 µM (inactive)	33.8 µM (inactive)	27.2 µM (inactive)	13.5 µM (inactive)	20.9 µM (inactive)	38.4 µM (inactive)	21.2 µM (inactive)		33.1 µM (inactive)	23.8 µM (inactive)	20.3 µM (inactive)	22.7 µM (inactive)	19.9 µM (inactive)	17.6 µM (inactive)	16.7 µM (inactive)	28.4 µM (inactive)	9.71 µM (inactive)	17.5 µM (inactive)	26.1 µM (inactive)
COc1cccc2c(Nc3ccc(S(=O)(=O)N=C(N)N)cc3)c3ccc([N+](=O)[O-])cc3nc12	11.5 µM (inactive)	19.1 µM (inactive)	20.2 µM (inactive)	2.38 µM (inactive)	16.6 µM (inactive)	15.7 µM (inactive)	11.4 µM (inactive)	10.7 µM (inactive)	38.8 µM (inactive)	14.7 µM (inactive)	20.4 µM (inactive)	8.05 µM (inactive)	5.62 µM (inactive)	29.4 µM (inactive)	14.3 µM (inactive)	30 µM (inactive)	11.3 µM (inactive)	5.98 µM (inactive)	8.67 µM (inactive)
CCOP(=O)(OCC)/C(C#N)=C/c1cccn1Cc1ccccc1	26.1 µM (inactive)	34.3 µM (inactive)	34.8 µM (inactive)	27.2 µM (inactive)	17 µM (inactive)	40 µM (inactive)	20.8 µM (inactive)	32.3 µM (inactive)	20.7 µM (inactive)	31.3 µM (inactive)	40.6 µM (inactive)		43.5 µM (inactive)	29.6 µM (inactive)	21.3 µM (inactive)	31.1 µM (inactive)	31.3 µM (inactive)	19.9 µM (inactive)	43.2 µM (inactive)
Cc1ccc(C(=O)c2[nH]c(Nc3ccc(Cl)cc3)c(C(=S)Nc3ccccc3)c2N)cc1	2.74 µM (inactive)	13.6 µM (inactive)	2.27 µM (inactive)	8.65 µM (inactive)	3.72 µM (inactive)	4.41 µM (inactive)	3.91 µM (inactive)	4.17 µM (inactive)	14 µM (inactive)	3.14 µM (inactive)	11.3 µM (inactive)	5.05 µM (inactive)	5.78 µM (inactive)	2.13 µM (inactive)	14.5 µM (inactive)	13.1 µM (inactive)	2.05 µM (inactive)	14.4 µM (inactive)	8.05 µM (inactive)
Cc1ccc(NC(=O)CCc2nnc3s/c(=C\c4cccc([N+](=O)[O-])c4)c(=O)n23)cc1	40.4 µM (inactive)	> 100 µM (inactive)	> 100 µM (inactive)	66.1 µM (inactive)	> 100 µM (inactive)	16.7 µM (inactive)	48.8 µM (inactive)	> 100 µM (inactive)	> 100 µM (inactive)	> 100 µM (inactive)	> 100 µM (inactive)	> 100 µM (inactive)	> 100 µM (inactive)	59.2 µM (inactive)	> 100 µM (inactive)	> 100 µM (inactive)	> 100 µM (inactive)	> 100 µM (inactive)	
